According to patent publication US20250197436A1, “GALACTOOLIGOSACCHARIDE COMPOSITION” (priority 2022, published 2025):

Test system: microbiota present in the faecal samples
Experiment: Faecal fermentation, distribution of oligosaccharides (HPAEC-PAD peak areas)
Excerpt: HPAEC-PAD (high performance anion exchange chromatography) equipped with a PA-1 column was used for separation of mono- and oligosaccharides of the different samples. […] The samples as used for GPC were 100-fold diluted with DMSO before injection.
The distribution of oligosaccharides in the mixtures was also monitored over this time period using the method described above in relation to Table 2.

[1] = Comp. Ex. 1 sample, 6 h, Donor A
[2] = Comp. Ex. 1 sample, 6 h, Donor B
[3] = Comp. Ex. 1 sample, 6 h, Donor C
[4] = Comp. Ex. 1 sample, 24 h, Donor A
[5] = Comp. Ex. 1 sample, 24 h, Donor B
[6] = Comp. Ex. 1 sample, 24 h, Donor C
[7] = Comp. Ex. 1 sample, 48 h, Donor A
[8] = Comp. Ex. 1 sample, 48 h, Donor B
[9] = Comp. Ex. 1 sample, 48 h, Donor C
[10] = Example 2 sample, 24 h, Donor A
[11] = Example 2 sample, 24 h, Donor B
[12] = Example 2 sample, 24 h, Donor C
[13] = Example 2 sample, 48 h, Donor A
[14] = Example 2 sample, 48 h, Donor B
[15] = Example 2 sample, 48 h, Donor C

O=C[C@H](O)[C@@H](O)[C@H](O)[C@H](O)CO [Glucose]
Peak areas (Comp. Ex. 1 sample, 0 h): 19.5 | Peak areas [1]: 2.9 | Peak areas [2]: 34.1 | Peak areas [3]: 0.2 | Peak areas [4]: 0.0 | Peak areas [5]: 0.1 | Peak areas [6]: 0.0 | Peak areas [7]: 0.0 | Peak areas [8]: 0.0 | Peak areas [9]: 0.0 | Peak areas (Example 2 sample, 0 h): 17.5 | Peak areas (Example 2 sample, 6 h, Donor A): 2.6 | Peak areas (Example 2 sample, 6 h, Donor B): 26.9 | Peak areas (Example 2 sample, 6 h, Donor C): 0.3 | Peak areas [10]: 0.0 | Peak areas [11]: 0.0 | Peak areas [12]: 0.0 | Peak areas [13]: 0.0 | Peak areas [14]: 0.0 | Peak areas [15]: 0.0

O=C[C@H](O)[C@@H](O)[C@@H](O)[C@H](O)CO [Galactose]
Peak areas (Comp. Ex. 1 sample, 0 h): 0.5 | Peak areas [1]: 2.4 | Peak areas [2]: 45.1 | Peak areas [3]: 0.7 | Peak areas [4]: 0.0 | Peak areas [5]: 0.1 | Peak areas [6]: 0.0 | Peak areas [7]: 0.0 | Peak areas [8]: 0.0 | Peak areas [9]: 0.0 | Peak areas (Example 2 sample, 0 h): 1.3 | Peak areas (Example 2 sample, 6 h, Donor A): 2.1 | Peak areas (Example 2 sample, 6 h, Donor B): 47.3 | Peak areas (Example 2 sample, 6 h, Donor C): 0.8 | Peak areas [10]: 0.0 | Peak areas [11]: 0.1 | Peak areas [12]: 0.0 | Peak areas [13]: 0.0 | Peak areas [14]: 0.0 | Peak areas [15]: 0.0

OC[C@H]1O[C@@H](O[C@@H]2[C@H](O)[C@@H](O)[C@H](O[C@H]3[C@H](O)[C@@H](O)C(O)O[C@@H]3CO)O[C@@H]2CO)[C@H](O)[C@@H](O)[C@H]1O (stereo partly drawn) [Cpd. ID 11, D-Gal-(β1-4)-D-Gal-(β1-4)-D-Glu]
Peak areas (Comp. Ex. 1 sample, 0 h): 27.6 | Peak areas [1]: 1.9 | Peak areas [2]: 5.7 | Peak areas [3]: 1.6 | Peak areas [4]: 1.9 | Peak areas [5]: 2.0 | Peak areas [6]: 0.7 | Peak areas [7]: 0.0 | Peak areas [8]: 1.9 | Peak areas [9]: 0.2 | Peak areas (Example 2 sample, 0 h): 20.4 | Peak areas (Example 2 sample, 6 h, Donor A): 3.2 | Peak areas (Example 2 sample, 6 h, Donor B): 4.5 | Peak areas (Example 2 sample, 6 h, Donor C): 1.6 | Peak areas [10]: 1.2 | Peak areas [11]: 1.7 | Peak areas [12]: 0.5 | Peak areas [13]: 0.3 | Peak areas [14]: 2.6 | Peak areas [15]: 0.6

OC[C@H]1O[C@@H](O[C@H]2[C@@H](O)[C@@H](CO)O[C@@H](O[C@H]3C(O)O[C@H](CO)[C@@H](O)[C@@H]3O)[C@@H]2O)[C@H](O)[C@@H](O)[C@H]1O (stereo partly drawn) [Cpd. ID 30, D-Gal-(β1-3)-D-Gal-(β1-2)-D-Glu]
Peak areas (Comp. Ex. 1 sample, 0 h): 2.6 | Peak areas [1]: 0.0 | Peak areas [2]: 1.3 | Peak areas [3]: 0.3 | Peak areas [4]: 0.0 | Peak areas [5]: 0.5 | Peak areas [6]: 0.0 | Peak areas [7]: 0.0 | Peak areas [8]: 0.6 | Peak areas [9]: 0.0 | Peak areas (Example 2 sample, 0 h): 12.6 | Peak areas (Example 2 sample, 6 h, Donor A): 0.0 | Peak areas (Example 2 sample, 6 h, Donor B): 1.8 | Peak areas (Example 2 sample, 6 h, Donor C): 0.9 | Peak areas [10]: 0.0 | Peak areas [11]: 0.5 | Peak areas [12]: 0.0 | Peak areas [13]: 0.1 | Peak areas [14]: 0.0 | Peak areas [15]: 0.2

OC[C@H]1O[C@@H](O[C@H]2[C@@H](O)[C@@H](CO)O[C@@H](O[C@H]3[C@H](O)[C@@H](O)C(O)O[C@@H]3CO)[C@@H]2O)[C@H](O)[C@@H](O)[C@H]1O (stereo partly drawn) [Cpd. ID 12, D-Gal-(β1-3)-D-Gal-(β1-4)-D-Glu]
Peak areas (Comp. Ex. 1 sample, 0 h): 1.4 | Peak areas [1]: 1.4 | Peak areas [2]: 0.8 | Peak areas [3]: 0.9 | Peak areas [4]: 0.4 | Peak areas [5]: 0.4 | Peak areas [6]: 0.4 | Peak areas [7]: 0.1 | Peak areas [8]: 1.1 | Peak areas [9]: 0.1 | Peak areas (Example 2 sample, 0 h): 28.9 | Peak areas (Example 2 sample, 6 h, Donor A): 1.1 | Peak areas (Example 2 sample, 6 h, Donor B): 5.4 | Peak areas (Example 2 sample, 6 h, Donor C): 1.2 | Peak areas [10]: 0.4 | Peak areas [11]: 0.7 | Peak areas [12]: 0.3 | Peak areas [13]: 0.3 | Peak areas [14]: 0.7 | Peak areas [15]: 0.2

OC[C@H]1O[C@@H](O[C@H]2[C@H](O)[C@@H](O)C(O)O[C@@H]2CO)[C@H](O)[C@@H](O)[C@H]1O (some centres unmarked) [Lactose]
Peak areas (Comp. Ex. 1 sample, 0 h): 48.4 | Peak areas [1]: 0.7 | Peak areas [2]: 1.9 | Peak areas [3]: 0.4 | Peak areas [4]: 0.4 | Peak areas [5]: 0.5 | Peak areas [6]: 0.4 | Peak areas [7]: 0.3 | Peak areas [8]: 0.5 | Peak areas [9]: 0.3 | Peak areas (Example 2 sample, 0 h): 30.9 | Peak areas (Example 2 sample, 6 h, Donor A): 0.3 | Peak areas (Example 2 sample, 6 h, Donor B): 5.3 | Peak areas (Example 2 sample, 6 h, Donor C): 0.6 | Peak areas [10]: 0.3 | Peak areas [11]: 0.4 | Peak areas [12]: 0.4 | Peak areas [13]: 0.3 | Peak areas [14]: 0.5 | Peak areas [15]: 0.3

OC[C@H]1O[C@@H](OC[C@H]2OC(O)[C@H](O)[C@@H](O)[C@@H]2O)[C@H](O)[C@@H](O)[C@H]1O (some centres unmarked) [Allolactos, Allolactose]
Peak areas (Comp. Ex. 1 sample, 0 h): 16.2 | Peak areas [1]: 0.0 | Peak areas [2]: 0.0 | Peak areas [3]: 0.0 | Peak areas [4]: 0.0 | Peak areas [5]: 0.0 | Peak areas [6]: 0.0 | Peak areas [7]: 0.0 | Peak areas [8]: 0.0 | Peak areas [9]: 0.0 | Peak areas (Example 2 sample, 0 h): 24 | Peak areas (Example 2 sample, 6 h, Donor A): 1.3 | Peak areas (Example 2 sample, 6 h, Donor B): 0.0 | Peak areas (Example 2 sample, 6 h, Donor C): 0.0 | Peak areas [10]: 0.0 | Peak areas [11]: 0.0 | Peak areas [12]: 0.0 | Peak areas [13]: 0.0 | Peak areas [14]: 0.0 | Peak areas [15]: 0.0

OC[C@H]1O[C@@H](O[C@H]2[C@@H](O)[C@@H](CO)O[C@@H](O[C@H]3[C@@H](O)[C@@H](CO)O[C@@H](O[C@H]4[C@H](O)[C@@H](O)C(O)O[C@@H]4CO)[C@@H]3O)[C@@H]2O)[C@H](O)[C@@H](O)[C@H]1O (stereo partly drawn) [Cpd. ID 31, D-Gal-(β1-3)-D-Gal-(β1-3)-D-Gal-(β1-4)-D-Glu]
Peak areas (Comp. Ex. 1 sample, 0 h): 0.8 | Peak areas [1]: 0.0 | Peak areas [2]: 0.5 | Peak areas [3]: 0.3 | Peak areas [4]: 0.5 | Peak areas [5]: 0.5 | Peak areas [6]: 0.0 | Peak areas [7]: 0.0 | Peak areas [8]: 0.4 | Peak areas [9]: 0.0 | Peak areas (Example 2 sample, 6 h, Donor A): 0.0 | Peak areas (Example 2 sample, 6 h, Donor B): 2.0 | Peak areas (Example 2 sample, 6 h, Donor C): 0.3 | Peak areas [10]: 0.2 | Peak areas [11]: 0.3 | Peak areas [12]: 0.0 | Peak areas [13]: 0.0 | Peak areas [14]: 0.0 | Peak areas [15]: 0.0

OC[C@H]1O[C@@H](O[C@H]2[C@@H](O)[C@@H](CO)O[C@@H](O[C@H]3[C@H](O)[C@@H](CO)OC(O)[C@@H]3O)[C@@H]2O)[C@H](O)[C@@H](O)[C@H]1O (stereo partly drawn) [Cpd. ID 29, D-Gal-(β1-3)-D-Gal-(β1-3)-D-Glu]
Peak areas (Comp. Ex. 1 sample, 0 h): 4.7 | Peak areas [1]: 0.1 | Peak areas [2]: 2.0 | Peak areas [3]: 1.0 | Peak areas [4]: 0.2 | Peak areas [5]: 0.4 | Peak areas [6]: 0.0 | Peak areas [7]: 0.0 | Peak areas [8]: 0.3 | Peak areas [9]: 0.0 | Peak areas (Example 2 sample, 0 h): 12.8 | Peak areas (Example 2 sample, 6 h, Donor A): 1.1 | Peak areas (Example 2 sample, 6 h, Donor B): 2.0 | Peak areas (Example 2 sample, 6 h, Donor C): 0.4 | Peak areas [10]: 0.0 | Peak areas [11]: 0.0 | Peak areas [12]: 0.0 | Peak areas [13]: 0.1 | Peak areas [14]: 0.4 | Peak areas [15]: 0.1
